Where only a bound is given, the exact number is not on record here.

The target of assay [1] is T1, acyl-CoA:cholesterol acyltransferase (ACAT) (Oryctolagus cuniculus, UniProt G1SFD9).
T1 sequence (G1SFD9 1-524): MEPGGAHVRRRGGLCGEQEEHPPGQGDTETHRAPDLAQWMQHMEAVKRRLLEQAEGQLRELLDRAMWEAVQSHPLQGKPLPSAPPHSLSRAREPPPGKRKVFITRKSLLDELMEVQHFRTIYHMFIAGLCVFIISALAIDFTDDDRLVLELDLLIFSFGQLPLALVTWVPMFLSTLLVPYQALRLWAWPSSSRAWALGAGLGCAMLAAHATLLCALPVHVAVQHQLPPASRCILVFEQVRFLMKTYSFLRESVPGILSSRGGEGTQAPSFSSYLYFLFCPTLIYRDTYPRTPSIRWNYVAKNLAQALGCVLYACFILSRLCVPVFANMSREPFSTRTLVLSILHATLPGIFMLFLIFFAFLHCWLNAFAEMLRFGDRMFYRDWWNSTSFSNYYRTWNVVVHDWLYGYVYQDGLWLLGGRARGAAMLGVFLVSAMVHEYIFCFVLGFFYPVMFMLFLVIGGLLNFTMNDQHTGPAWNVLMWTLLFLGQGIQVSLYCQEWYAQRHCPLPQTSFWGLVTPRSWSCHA
The assay can be described thus: In vitro ACAT inhibition: radiolabeled cholesterol oleate formed from radiolabeled oleic acid in rabbit intestinal microsomes. Type of assay: biochemical. The following applies: concentration required to inhibit 50% activity of the enzyme.
Description: The ability of representative compounds of the present invention to inhibit ACAT was measured using an in vitro test more fully described by Field, F. J. and Salone, R. G., in Biochemica et Biophysica 712:557-570 (1982). The test assesses the ability of a test compound to inhibit the acylation of cholesterol by oleic acid by measuring the amount of radiolabeled cholesterol oleate formed from radiolabeled oleic acid in a tissue preparation containing rabbit intestinal microsomes.

Assay [2] can be described thus: In vivo screen designated APCC: blood cholesterol in rats on chow supplemented with peanut oil, cholesterol and cholic acid. Particulars: cholesterol in blood, male Sprague-Dawley rats, oral, 30 milligrams per kilogram, single dose 4 PM, blood samples 8 AM next day, vs vehicle control (CMC/Tween); for change in vivo at 30 mg/kg: Rattus norvegicus, 16 h, read-out: % Change (mg/dl). An excerpt:
In one in vivo screen designated APCC, male Sprague-Dawley rats (200 to 225 g) were randomly divided into treatment groups and dosed orally at 4 PM with either vehicle (CMC/Tween) or suspensions of test compounds in vehicle. The control group received vehicle alone. Immediately after dosing, all animals received ad libitum a chow diet supplemented with peanut oil (5.5%), cholesterol (1.5%) and cholic acid (0.5%). The next day the animals were sacrificed at 8 AM to obtain blood samples for cholesterol analysis using standard procedures. Statistical differences between mean cholesterol values for the same vehicle were determined using analysis of variance followed by Fisher's least significant test. The compounds were administered at 30 milligrams per kilogram of body weight.

`CCCCCCCCCCCc1nc(NC(=O)Nc2c(C(C)C)cccc2C(C)C)n(C(C)=O)n1` [Example 1, N-[2,6-bis(1-methylethyl)phenyl]-N'-(2-acetyl-5-undecyl-2H-1,2,4-triazol-3-yl)urea]: the IC50 in assay [1] is more than 5000 nM. Moreover, in assay [2], the change in vivo at 30 mg/kg was -38%.
On the same counts, the results for `CCCCCCCCCCCc1nc(NC(=O)Nc2c(C(C)C)cccc2C(C)C)n[nH]1` [Example 2, N-[2,6-bis(1-methylethyl)phenyl]-N'-(5-undecyl-1H-1,2,4-triazol-3-yl)urea] are more than 5000 nM and -31%.
`CCCCCCCCCCCCc1nc(NC(=O)Nc2c(C(C)C)cccc2C(C)C)n[nH]1` [Example 4, N-[2,6-bis(1-methylethyl)phenyl]-N'(5-dodecyl-1H-1,2,4-triazol-3-yl)urea]: the change in vivo at 30 mg/kg in assay [2] is 12%.
As to `CCCCCCCCCCCCCCc1nc(NC(=O)Nc2c(C(C)C)cccc2C(C)C)n[nH]1` [Example 6], the IC50 in assay [1] was more than 5000 nM. In assay [2], the change in vivo at 30 mg/kg is -1%.
On the same counts, the results for `CCCCCCCCCCCn1ncnc1NC(=O)Nc1c(C(C)C)cccc1C(C)C` [Example 7, N-[2,6-bis(1-methylethyl)phenyl]-N'-(2-undecyl-2H-1,2,4-triazol-3-yl)urea] are 140 nM and -38%.
Consider `CCCCCCCCCCCn1cnc(NC(=O)Nc2c(C(C)C)cccc2C(C)C)n1` [Example 8, N-[2,6-bis(1-methylethyl)phenyl]-N-(1-undecyl-1,2,4-triazol-3-yl)urea], for which, in assay [1], the IC50 came out at 110 nM. Also, the change in vivo at 30 mg/kg in assay [2] is -39%.
On the same counts, the results for `CCCCCCCCCCCn1cnnc1NC(=O)Nc1c(C(C)C)cccc1C(C)C` [Example 9, N-[2,6-bis(1-methylethyl)phenyl]-N'(4-undecyl-1,2,4-triazol-3-yl)urea] are 670 nM and -21%.
In turn, `CCCCCCCCCCCCn1cnc(NC(=O)Nc2c(C(C)C)cccc2C(C)C)n1` [Example 11, N-[2,6-bis(1-methylethyl)phenyl]-N'-(1-dodecyl-1H-1,2,4-triazol-3-yl)urea] gave an IC50 in assay [1] of 1500 nM. Further, the change in vivo at 30 mg/kg in assay [2] is -30%.
With `CCCCCCCCCCCCn1cnnc1NC(=O)Nc1c(C(C)C)cccc1C(C)C` [Example 12, N-[2,6-bis(1-methylethyl)phenyl]-N'-(4-dodecyl-4H-1,2,4-triazol-3-yl)urea], the change in vivo at 30 mg/kg in assay [2] is -28%.
`CCCCCCCCCCCCSc1nnc(NC(=O)Nc2c(C(C)C)cccc2C(C)C)n1C(C)=O` [Example 13, 4-acetyl-N-[[[2,6-bis(1-methylethyl)phenyl]amino]carbonyl]-5-(dodecylthio)-4H-1,2,4-triazol-3-amine]: in assay [1], the IC50 was found to be 600 nM. The change in vivo at 30 mg/kg in assay [2] is -41%.
On to `CCCCCCCCCCCCCSc1nnc(NC(=O)Nc2c(C(C)C)cccc2C(C)C)n1C(C)=O` [Example 14, 4-Acetyl-N-[[[2,6-bis(1-methylethyl)phenyl]amino]carbonyl]-5-(tridecylthio)-4H-1,2,4-triazol-3-amine], for which the change in vivo at 30 mg/kg in assay [2] was -21%.
For `CCCCCCCCCCCCCSc1nnc(NC(=O)Nc2c(C(C)C)cccc2C(C)C)[nH]1` [Example 15, N-[[[2,6-Bis(1-methylethyl)phenyl]amino]carbonyl]-5-(tridecylthio)-4H-1,2,4-triazol-3-amine], the change in vivo at 30 mg/kg in assay [2] is 12%.
The same measure, in the same setting: the figure for `CCCCCCCCCCCCC[S+]([O-])c1nc(NC(=O)Nc2c(C(C)C)cccc2C(C)C)n[nH]1` (stereo not shown) [Example 16, N-[2,6-Bis(1-methylethyl)phenyl]-N'-[5-(tridecylsulfinyl)-1H-1,2,4-triazol-3-yl]urea] is -6%; for `CCCCCCCCCCCCCS(=O)(=O)c1nnc(NC(=O)Nc2c(C(C)C)cccc2C(C)C)[nH]1` [Example 17] it is -11%.
For `CCCCCCCCCCCc1nnc(NC(=O)Nc2c(C(C)C)cccc2C(C)C)s1` [Example 18, N-[2,6-bis(1-methylethyl)phenyl]-N'-(5-undecyl-1,3,4-thiadiazol-2-yl)urea], half-maximal inhibition in assay [1] (IC50) required 39 nM. Also, the change in vivo at 30 mg/kg in assay [2] is -44%.
For the molecule `Cc1nnc(NC(=O)Nc2c(C(C)C)cccc2C(C)C)s1` [Example 19, N-[2,6-bis(1-methylethyl)phenyl]-N'-(5-methyl-1,3,4-thiadiazol-2-yl)urea], the half-inhibitory concentration (IC50) in assay [1] was more than 5000 nM.
As to `CCCCCCCc1nnc(NC(=O)Nc2c(C(C)C)cccc2C(C)C)s1` [Example 20, N-[2,6-bis(1-methylethyl)phenyl]-N'-(5-heptyl-1,3,4-thiadiazol-2-yl)urea], the IC50 in assay [1] was 400 nM. Further, the change in vivo at 30 mg/kg in assay [2] is -25%.
Consider `CCCCCCCCCc1nnc(NC(=O)Nc2c(C(C)C)cccc2C(C)C)s1` [Example 21, N-[2,6-bis(1-methylethyl)phenyl]-N'-(5-nonyl-1,3,4-thiadiazol-2-yl)urea], for which the change in vivo at 30 mg/kg in assay [2] was -45%.
The same measure, in the same setting: the figure for `CCCCCCCCCCCCCc1nnc(NC(=O)Nc2c(C(C)C)cccc2C(C)C)s1` [Example 22, N-[2,6-bis(1-methylethyl)phenyl]-N'-(5-tridecyl-1,3,4-thiadiazol-2-yl)urea] is -8%.
Molecule `CCCCCCCCCCCCc1nnc(NC(=O)Nc2c(C(C)C)cccc2C(C)C)s1` [Example 23, N-[2,6-bis(1-methylethyl)phenyl]-N'-(5-dodecyl-1,3,4-thiadiazol-2-yl)urea] had an IC50 in assay [1] of 34 nM. Also, the change in vivo at 30 mg/kg in assay [2] is -32%.
Regarding `CC(C)c1cccc(C(C)C)c1NC(=O)Nc1nc(-c2ccccc2)ns1` [Example 24, N-[2,6-Bis(1-methylethyl)phenyl]-N'-(3-phenyl-1,2,4-thiadiazol-5-yl)urea], in assay [1], the IC50 was more than 5000 nM.
Take `CCCCCCCCCCCCCc1nnc(NC(=O)Nc2c(C(C)C)cccc2C(C)C)o1` [Example 25, N-[2,6-bis(1-methylethyl)phenyl]-N'-(5-tridecyl-1,3,4-oxadiazol-2-yl)urea]: in assay [2], the change in vivo at 30 mg/kg is -62%.
The molecule `CCCCCCCCCCCCCc1nc(NC(=O)Nc2c(C(C)C)cccc2C(C)C)no1` [Example 26, N-[2,6-bis(1-methylethyl)phenyl]-N'-[5-tridecyl-1,2,4-oxadiazol-3-yl]urea] returned an IC50 in assay [1] of 7 nM.
Same read-out and setting: the figure for `CSc1nnc(NC(=O)Nc2c(C(C)C)cccc2C(C)C)[nH]1` [Example 27] is more than 5000 nM.
Molecule “N-[2,6-bis(1-methylethyl)phenyl]-N'-(2-dodecyl-1H-1,2,4-triazol-5-yl)urea [Example 10]” displayed a half-maximal inhibitory concentration (IC50) in assay [1] of 250 nM. The “% Change (mg/dl)” value in assay [2] was -36%.

By IC50 is commonly meant the point on the concentration scale where inhibition reaches its midpoint. Low values mean greater potency in that assay, high ones weaker potency in that assay.
